Reference: the supplement of paper PMC10307832

Assays:
Assay in all cases: relative viability (nuclei count vs DMSO), 5 days (fraction); higher = more cells survive
NCI-H1734 = tested on: NCI-H1734
Summary of the method: (§1)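 Nuclei were stained with Hoechst during a one-step fixation (final 0.05% Triton X-100, 1% formaldehyde, 1 ug/ml Hoechst) carried out 5 days after dosing, then counted on 4× images. The cells, lung cancer lines in 1536-well plates, had been dosed by pin tool the day after seeding with one drug alone or a fixed anchor-drug dose plus five library-drug doses (not always all listed) in √10 steps. Relative viability is the nuclei count in treated wells divided by that in vehicle wells, and each value is the median of duplicate plates.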

NCI-H1944 = tested on: NCI-H1944
Summary of the method: as §1

NCI-H1993 = tested on: NCI-H1993
Summary of the method: as §1

NCI-H2085 = tested on: NCI-H2085
Summary of the method: as §1

NCI-H2170 = tested on: NCI-H2170
Summary of the method: as §1

NCI-H2342 = tested on: NCI-H2342
Summary of the method: as §1

NCI-H322M = tested on: NCI-H322M
Summary of the method: as §1

NCI-H520 = tested on: NCI-H520
Summary of the method: as §1

NCI-H661 = tested on: NCI-H661
Summary of the method: as §1

NCI-H838 = tested on: NCI-H838
Summary of the method: as §1

RERF-LC-KJ = tested on: RERF-LC-KJ
Summary of the method: as §1

## COCC1(CO)C(=O)C2CCN1CC2 (stereo not drawn) [PRIMA-1MET] + Nc1ncn([C@H]2C[C@H](O)[C@@H](CO)O2)c(=O)n1 [Decitabine] (partner 2 µM)
NCI-H1734; first compound 6.325 µM
  relative viability: 0.474
NCI-H1734; first compound 20 µM
  relative viability: 0.0575
NCI-H1944; first compound 0.2 µM
  relative viability: 0.436
NCI-H1944; first compound 0.6325 µM
  relative viability: 0.35
NCI-H1944; first compound 2 µM
  relative viability: 0.408
NCI-H1944; first compound 6.325 µM
  relative viability: 0.431
NCI-H1944; first compound 20 µM
  relative viability: 0.446
NCI-H1993; first compound 0.2 µM
  relative viability: 0.57
NCI-H1993; first compound 2 µM
  relative viability: 0.57
NCI-H1993; first compound 6.325 µM
  relative viability: 0.731
NCI-H1993; first compound 20 µM
  relative viability: 0.564
NCI-H2085; first compound 0.2 µM
  relative viability: 0.59
NCI-H2085; first compound 0.6325 µM
  relative viability: 0.459
NCI-H2085; first compound 2 µM
  relative viability: 0.526
NCI-H2085; first compound 6.325 µM
  relative viability: 0.526
NCI-H2085; first compound 20 µM
  relative viability: 0.198
NCI-H2170; first compound 0.2 µM
  relative viability: 0.42
NCI-H2170; first compound 0.6325 µM
  relative viability: 0.324
NCI-H2170; first compound 2 µM
  relative viability: 0.43
NCI-H2170; first compound 6.325 µM
  relative viability: 0.457
NCI-H2170; first compound 20 µM
  relative viability: 0.457
NCI-H2342; first compound 0.2 µM
  relative viability: 0.671
NCI-H2342; first compound 0.6325 µM
  relative viability: 0.681
NCI-H2342; first compound 6.325 µM
  relative viability: 0.658
NCI-H2342; first compound 20 µM
  relative viability: 0.684
NCI-H322M; first compound 0.2 µM
  relative viability: 0.725
NCI-H322M; first compound 0.6325 µM
  relative viability: 0.696
NCI-H322M; first compound 6.325 µM
  relative viability: 0.714
NCI-H322M; first compound 20 µM
  relative viability: 0.6
NCI-H520; first compound 0.2 µM
  relative viability: 0.506
NCI-H520; first compound 2 µM
  relative viability: 0.413
NCI-H520; first compound 6.325 µM
  relative viability: 0.521
NCI-H520; first compound 20 µM
  relative viability: 0.219
NCI-H661; first compound 0.2 µM
  relative viability: 0.549
NCI-H661; first compound 0.6325 µM
  relative viability: 0.459
NCI-H661; first compound 2 µM
  relative viability: 0.517
NCI-H661; first compound 6.325 µM
  relative viability: 0.567
NCI-H661; first compound 20 µM
  relative viability: 0.497
NCI-H838; first compound 0.2 µM
  relative viability: 0.435
NCI-H838; first compound 0.6325 µM
  relative viability: 0.312
NCI-H838; first compound 2 µM
  relative viability: 0.474
NCI-H838; first compound 6.325 µM
  relative viability: 0.472
NCI-H838; first compound 20 µM
  relative viability: 0.453
RERF-LC-KJ; first compound 0.2 µM
  relative viability: 0.753
RERF-LC-KJ; first compound 0.6325 µM
  relative viability: 0.617
RERF-LC-KJ; first compound 2 µM
  relative viability: 0.718
RERF-LC-KJ; first compound 6.325 µM
  relative viability: 0.69
RERF-LC-KJ; first compound 20 µM
  relative viability: 0.595
